Laboratory results as given in patent US11078197B2, “5-membered and bicyclic heterocyclic amides as inhibitors of rock” (BRISTOL-MYERS SQUIBB COMPANY, priority 2017, dated 2021).

molecular target: ROCK2 (Homo sapiens (Human), UniProt O75116); test: ROCK2 assay (peptide phosphorylation, LABCHIP 3000 Reader); assay type: biochemical; conditions: 5 μM ATP, 1.5 μM peptide substrate, dose-response
Method: After incubation, the reaction was terminated by the addition of EDTA and the phosphorylated and non-phosphorylated peptides separated using a LABCHIP®3000 Reader (Caliper Life Sciences). […] Compounds were tested in dose-response format, and the inhibition of kinase activity was calculated at each concentration of compound. […] Representative Examples were tested in the ROCK2 assay described above and found having ROCK2 inhibitory activity.

Sequence of ROCK2 (O75116 whole entry, species assumed): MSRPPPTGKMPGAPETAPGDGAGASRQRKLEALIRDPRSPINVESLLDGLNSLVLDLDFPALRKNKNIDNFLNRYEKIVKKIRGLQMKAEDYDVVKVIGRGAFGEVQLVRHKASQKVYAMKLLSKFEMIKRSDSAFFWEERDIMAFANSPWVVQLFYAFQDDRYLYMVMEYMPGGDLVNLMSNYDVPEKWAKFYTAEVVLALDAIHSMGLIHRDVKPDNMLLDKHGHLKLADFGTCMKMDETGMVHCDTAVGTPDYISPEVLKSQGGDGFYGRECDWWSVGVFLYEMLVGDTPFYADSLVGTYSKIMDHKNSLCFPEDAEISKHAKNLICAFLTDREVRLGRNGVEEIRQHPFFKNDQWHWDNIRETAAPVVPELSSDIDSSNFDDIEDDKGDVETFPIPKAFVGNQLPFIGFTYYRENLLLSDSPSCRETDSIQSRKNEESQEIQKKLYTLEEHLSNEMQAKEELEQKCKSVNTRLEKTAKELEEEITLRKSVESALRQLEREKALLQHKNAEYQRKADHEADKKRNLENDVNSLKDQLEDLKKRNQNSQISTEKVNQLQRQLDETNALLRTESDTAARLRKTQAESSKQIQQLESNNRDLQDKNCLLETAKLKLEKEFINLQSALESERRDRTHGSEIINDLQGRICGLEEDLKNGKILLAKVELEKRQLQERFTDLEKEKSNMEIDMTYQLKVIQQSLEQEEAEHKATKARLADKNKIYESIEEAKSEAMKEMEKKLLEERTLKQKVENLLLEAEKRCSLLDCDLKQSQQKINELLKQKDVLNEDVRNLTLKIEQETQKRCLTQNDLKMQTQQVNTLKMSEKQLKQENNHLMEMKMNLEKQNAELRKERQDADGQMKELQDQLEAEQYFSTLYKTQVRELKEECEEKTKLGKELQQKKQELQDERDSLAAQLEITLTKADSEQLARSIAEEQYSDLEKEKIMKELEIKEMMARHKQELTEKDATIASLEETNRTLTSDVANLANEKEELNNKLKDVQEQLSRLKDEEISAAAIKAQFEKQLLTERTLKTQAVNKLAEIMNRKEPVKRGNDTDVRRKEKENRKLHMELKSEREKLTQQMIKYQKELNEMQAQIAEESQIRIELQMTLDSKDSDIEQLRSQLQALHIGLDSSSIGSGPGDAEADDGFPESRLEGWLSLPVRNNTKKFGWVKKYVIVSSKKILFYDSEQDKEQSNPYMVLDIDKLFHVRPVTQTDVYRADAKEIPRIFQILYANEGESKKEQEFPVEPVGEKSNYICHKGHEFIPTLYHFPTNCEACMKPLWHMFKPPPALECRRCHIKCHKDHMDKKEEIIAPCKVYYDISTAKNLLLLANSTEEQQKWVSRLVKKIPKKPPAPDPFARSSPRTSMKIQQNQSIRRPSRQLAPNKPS

Question: With “2-cyclopropyl-4- {[(aR)-6-{4-[(1R)- 1-hydroxyethyl]-2,5- dioxoimidazolidin-1- yl}spiro[3.3]heptan- 2-yl]oxy}-1,3- thiazole-5- carboxamide [Example 109]” as the molecule, how does the IC50 read?
Answer: 330 nM

Question: With NC(=O)c1cc2sccc2nc1OC1CC2(CC(NC(=O)C3CC(=O)N(Cc4ccc(Cl)cc4)C3)C2)C1 (single isomer, unassigned) [Example 78, N-[6-({6-carbamoylthieno[3,2-b]pyridin-5-yl}oxy)spiro[3.3]heptan-2-yl]-1-[(4-chlorophenyl)methyl]-5-oxopyrrolidine-3-carboxamide] as the molecule, how does the IC50 read?
Answer: 3100 nM

Question: NC(=O)c1cc2sccc2nc1OC1CC2(CC(NC(=O)C3CC(=O)N(Cc4ccc(Cl)cc4)C3)C2)C1 (single isomer, unassigned) [Example 80, N-[6-({6-carbamoylthieno[3,2-b]pyridin-5-yl}oxy)spiro[3.3]heptan-2-yl]-1-[(4-chlorophenyl)methyl]-5-oxopyrrolidine-3-carboxamide] was tested. Which IC50 did it give?
Answer: 2340 nM

Question: CC(C)CC1NC(=O)N([C@H]2C[C@@]3(C[C@H](Oc4nc(C5CC5)sc4C(N)=O)C3)C2)C1=O (single isomer, unassigned) [Example 110, 2-cyclopropyl-4-{[{aR)-6-[4-(2-methylpropyl)-2,5-dioxoimidazolidin-1-yl]spiro[3.3]heptan-2-yl]oxy}-1,3-thiazole-5-carboxamide] was tested. Which IC50 did it give?
Answer: 12.2 nM

Question: How did the IC50 turn out when CC(C)CC1NC(=O)N([C@H]2C[C@@]3(C[C@H](Oc4nc(C5CC5)sc4C(N)=O)C3)C2)C1=O (single isomer, unassigned) [Example 111] was run?
Answer: 106 nM

Question: With [H][C@]1(Oc2nc(C)sc2C(N)=O)C[C@]2(C[C@@H](NC(=O)c3cnn(-c4ccc(Cl)cc4)c3C)C2)C1 (stereo partly drawn) [Example 1, 4-(((aR)-6-(1-(4-Chlorophenyl)-5-methyl-1H-pyrazole-4-carboxamido)spiro[3.3]heptan-2-yl)oxy)-2-methylthiazole-5-carboxamide] as the molecule, how does the IC50 read?
Answer: 42.7 nM

Question: Which IC50 does the source give for [H][C@]1(Oc2nc(C3CC3)sc2C(N)=O)C[C@]2(C[C@@H](NC(=O)c3nc(C(F)(F)F)n4cc(-n5ccccc5=O)ccc34)C2)C1 (stereo partly drawn) [Example 3, 2-Cyclopropyl-4-(((aR)-6-(6-(2-oxopyridin-1(2H)-yl)-3-(trifluoromethyl)imidazo[1,5-a]pyridine-1-carboxamido)spiro[3.3]heptan-2-yl)oxy)thiazole-5-carboxamide] here?
Answer: 68.8 nM

Question: How did the IC50 turn out when Cn1cc(C(N)=O)c(OC2CC3(CC(NC(=O)c4cnn5cc(OCCC(F)(F)F)ccc45)C3)C2)n1 [Example 4, N-((aR)-6-((4-Carbamoyl-1-methyl-1H-pyrazol-3-yl)oxy)spiro[3.3]heptan-2-yl)-6-(3,3,3-trifluoropropoxy)pyrazolo[1,5-a]pyridine-3-carboxamide] was run?
Answer: 20.1 nM

Question: For CC(C)(O)COc1ccc2c(C(=O)NC3CC4(C3)CC(Oc3nn(CC5CC5)cc3C(N)=O)C4)cnn2c1C1CC1 (stereo not shown) [Example 5], which IC50 is on record?
Answer: 52.6 nM

Question: With [H][C@]1(Oc2nn3ccccc3c2C(N)=O)C[C@]2(C[C@@H](NC(=O)c3cnn4c(C5CC5)c(OCC(C)(C)O)ccc34)C2)C1 (stereo partly shown) [Example 6] as the molecule, how does the IC50 read?
Answer: 25.6 nM

Question: With CC(C)(O)COc1ccc2c(C(=O)NC3CC4(C3)CC(Oc3nc5ncccc5cc3C(N)=O)C4)cnn2c1C1CC1 [Example 7, 2-(((aR)-6-(7-Cyclopropyl-6-(2-hydroxy-2-methylpropoxy)pyrazolo[1,5-a]pyridine-3-carboxamido)spiro[3.3]heptan-2-yl)oxy)-1,8-naphthyridine-3-carboxamide] as the molecule, how does the IC50 read?
Answer: 4.8 nM

Question: How did the IC50 turn out when CC(C)(O)COc1ccc2c(C(=O)NC3CC4(C3)CC(Oc3nc5c(cc3C(N)=O)CCCN5)C4)cnn2c1C1CC1 [Example 8, 2-(((aR)-6-(7-Cyclopropyl-6-(2-hydroxy-2-methylpropoxy)pyrazolo[1,5-a]pyridine-3-carboxamido)spiro[3.3]heptan-2-yl)oxy)-5,6,7,8-tetrahydro-1,8-naphthyridine-3-carboxamide] was run?
Answer: 5.4 nM

Question: With NC(=O)c1cc2sccc2nc1OC1CC2(CC(NC(=O)C3CCC(C(F)(F)F)CC3)C2)C1 (stereo not shown) [Example 9, 5-((6-(4-(Trifluoromethyl)cyclohexane-1-carboxamido)spiro[3.3]heptan-2-yl)oxy)thieno[3,2-b]pyridine-6-carboxamide] as the molecule, how does the IC50 read?
Answer: 349 nM

Question: With CC(C)CC1NC(=O)N([C@H]2C[C@@]3(C[C@H](Oc4nc(C5CC5)sc4C(N)=O)C3)C2)C1=O (stereo partly shown) [Example 10] as the molecule, how does the IC50 read?
Answer: 27.4 nM

Question: Which IC50 does the source give for NC(=O)c1sc(C2CC2)nc1O[C@H]1CC2(C[C@H](NC(=O)c3cnn4cc(OCC(F)F)ccc34)C2)C1 (stereo partly drawn) [Example 11, 2-cyclopropyl-4-(((aR)-6-(6-(2,2-difluoroethoxy)pyrazolo[1,5-a]pyridine-3-carboxamido)spiro[3.3]heptan-2-yl)oxy)thiazole-5-carboxamide] here?
Answer: 23.3 nM

Question: With CC(C)(O)COc1ccc2c(C(=O)NC3CC4(C3)CC(Oc3nc5c(cc3C(N)=O)COCC5)C4)cnn2c1 [Example 12, 6-(2-hydroxy-2-methylpropoxy)-N-[(aR)-6-({3-carbamoyl-5H,7H,8H-pyrano[4,3-b]pyridin-2-yl}oxy)spiro[3.3]heptan-2-yl]pyrazolo[1,5-a]pyridine-3-carboxamide] as the molecule, how does the IC50 read?
Answer: 40.1 nM

Question: NC(=O)c1cc2c(nc1O[C@H]1C[C@]3(C1)C[C@H](N1C(=O)CN(Cc4ccccc4)CC1=O)C3)CCOC2 (stereo partly shown) [Example 13] was tested. Which IC50 did it give?
Answer: 576 nM

Question: How did the IC50 turn out when Cn1cc(C(N)=O)c(O[C@H]2C[C@@]3(C[C@H](NC(=O)c4cnn5c(C6CC6)c(OCC(C)(C)O)ccc45)C3)C2)n1 (stereo partly drawn) [Example 14, 3-({(aR)-6-[7-cyclopropyl-6-(2-hydroxy-2-methylpropoxy)pyrazolo [1,5-a]pyridine-3-amido]spiro[3.3]heptan-2-yl}oxy)-1-methyl-1H-pyrazole-4-carboxamide] was run?
Answer: 14.1 nM

Question: With CC(C)(O)COc1ccc2c(C(=O)N[C@H]3C[C@]4(C3)C[C@H](Oc3nn(-c5ccccc5)cc3C(N)=O)C4)cnn2c1C1CC1 (stereo partly drawn) [Example 15, 3-({(aR)-6-[7-cyclopropyl-6-(2-hydroxy-2-methylpropoxy)pyrazolo [1,5-a]pyridine-3-amido]spiro[3.3]heptan-2-yl}oxy)-1-phenyl-1H-pyrazole-4-carboxamide] as the molecule, how does the IC50 read?
Answer: 12.5 nM

Question: With CC(C)(O)COc1ccc2c(C(=O)N[C@H]3C[C@]4(C3)C[C@H](Oc3nc(-c5ccccc5)sc3C(N)=O)C4)cnn2c1 (stereo partly drawn) [Example 17, 4-({(aR)-6-[6-(2-hydroxy-2-methylpropoxy)pyrazolo [1,5-a]pyridine-3-amido]spiro[3.3]heptan-2-yl}oxy)-2-phenyl-1,3-thiazole-5-carboxamide] as the molecule, how does the IC50 read?
Answer: 18.5 nM

Question: Which IC50 does the source give for CC(C)(O)COc1ccc2c(C(=O)N[C@H]3C[C@]4(C3)C[C@H](Oc3nc(-c5ccccc5)sc3C(N)=O)C4)cnn2c1C1CC1 (stereo partly drawn) [Example 18, 4-({(aR)-6-[7-cyclopropyl-6-(2-hydroxy-2-methylpropoxy)pyrazolo [1,5-a]pyridine-3-amido]spiro[3.3]heptan-2-yl}oxy)-2-phenyl-1,3-thiazole-5-carboxamide] here?
Answer: 13.4 nM

Question: Which IC50 does the source give for CCn1cc(C(N)=O)c(O[C@H]2C[C@@]3(C[C@H](NC(=O)c4cnn5c(C6CC6)c(OCC(C)(C)O)ccc45)C3)C2)n1 (stereo partly drawn) [Example 19, 3-({(aR)-6-[7-cyclopropyl-6-(2-hydroxy-2-methylpropoxy)pyrazolo [1,5-a]pyridine-3-amido]spiro[3.3]heptan-2-yl}oxy)-1-ethyl-1H-pyrazole-4-carboxamide] here?
Answer: 10.5 nM
